Test results: ChEMBL document CHEMBL3232928, “Fragment-to-hit-to-lead discovery of a novel pyridylurea scaffold of ATP competitive dual targeting type II topoisomerase inhibiting antibacterial agents” (J Med Chem, 2013)
Converted amounts (≈) assume the structure as drawn.

Experiments:
[1] = Antibacterial activity against fluoroquinolone-resistant Streptococcus pneumoniae D39 NCTC 7466 expressing GyrA S81Y/ParC S79F double mutant assessed as growth inhibition after 18 to 24 hrs by CLSI broth microdilution method; assay type: functional
[2] = Antibacterial activity against fluoroquinolone-resistant Streptococcus pneumoniae D39 NCTC 7466 expressing ParE/GyrB K143I mutant assessed as growth inhibition after 18 to 24 hrs by CLSI broth microdilution method; assay type: functional
Streptococcus pneumoniae [3] = test: microbe, parasite or virus in culture
Description: Antibacterial activity against wild type Streptococcus pneumoniae assessed as growth inhibition after 18 to 24 hrs by CLSI broth microdilution method

[4] = Antibacterial activity against fluoroquinolone-resistant Streptococcus pneumoniae D39 NCTC 7466 expressing ParE/GyrB T172A mutant assessed as growth inhibition after 18 to 24 hrs by CLSI broth microdilution method; assay type: functional
[5] = Antibacterial activity against fluoroquinolone-resistant Streptococcus pneumoniae D39 NCTC 7466 expressing GyrB T172A/ParE T172A double mutant assessed as growth inhibition after 18 to 24 hrs by CLSI broth microdilution method; assay type: functional
[6] = Antibacterial activity against fluoroquinolone-resistant Streptococcus pneumoniae D39 NCTC 7466 expressing GyrB K143A/ParE T172A double mutant assessed as growth inhibition after 18 to 24 hrs by CLSI broth microdilution method; assay type: functional
[7] = Antibacterial activity against fluoroquinolone-resistant Streptococcus pneumoniae D39 NCTC 7466 expressing GyrA S81F/ParC S79F double mutant assessed as growth inhibition after 18 to 24 hrs by CLSI broth microdilution method; assay type: functional
[8] = Antibacterial activity against fluoroquinolone-resistant Streptococcus pneumoniae D39 NCTC 7466 expressing GyrB/ParE T172A mutant assessed as growth inhibition after 18 to 24 hrs by CLSI broth microdilution method; assay type: functional
[9] = Antibacterial activity against fluoroquinolone-resistant Streptococcus pneumoniae D39 NCTC 7466 expressing GyrA S81F/ParC S79Y double mutant assessed as growth inhibition after 18 to 24 hrs by CLSI broth microdilution method; assay type: functional
[10] = Octanol-phosphate buffer partition coefficient, log D of the compound at pH 7.4 after 1 hr by shake flask method; assay type: physicochemical
Staphylococcus aureus [11] = test: Antibacterial activity against methicillin-sensitive wild type Staphylococcus aureus assessed as growth inhibition after 18 to 24 hrs by CLSI broth microdilution method; assay type: functional
[12] = Dissociation constant, pKa of the compound; assay type: physicochemical
[13] = Antibacterial activity against wild type Haemophilus influenzae Rd KW20 ATCC 51907 assessed as growth inhibition after 18 to 24 hrs by CLSI broth microdilution method; assay type: functional
Escherichia coli [14] = test: Antibacterial activity against wild type Escherichia coli W3110 assessed as growth inhibition after 18 to 24 hrs by CLSI broth microdilution method; assay type: functional
[15] = Inhibition of ATPase activity in Escherichia coli ParC/ParE by ammonium molybdate/malachite green-based absorbance assay
[16] = Inhibition of ATPase activity in Escherichia coli ParE by ammonium molybdate/malachite green-based absorbance assay
[17] = Unbound fraction in human at 10 uM after 16 hrs by LC-MS/MS analysis; assay type: ADME; details: plasma
Escherichia coli [18] = test: Antibacterial activity against tolC efflux pump deficient Escherichia coli W3110 assessed as growth inhibition after 18 to 24 hrs by CLSI broth microdilution method; assay type: functional
DNA gyrase subunit B = DNA gyrase subunit B (Staphylococcus aureus, UniProt P0A0K8); test: Inhibition of ATPase activity in Staphylococcus aureus GyrB tetramer in presence of Escherichia coli GyrA by ammonium molybdate/malachite green-based absorbance assay
Moraxella catarrhalis = test: Antibacterial activity against wild type Moraxella catarrhalis ATCC 43617 assessed as growth inhibition after 18 to 24 hrs by CLSI broth microdilution method; assay type: functional
[19] = Inhibition of ATPase activity in Escherichia coli GyrA/GyrB by ammonium molybdate/malachite green-based absorbance assay
[20] = Solubility of the compound; assay type: physicochemical
[21] = Antibacterial activity against Streptococcus pneumoniae D39 NCTC 7466 assessed as growth inhibition after 18 to 24 hrs by CLSI broth microdilution method; assay type: functional
Staphylococcus aureus [22] = test: Antibacterial activity against methicillin-resistant and […] Staphylococcus aureus assessed as growth inhibition after 18 to 24 hrs by CLSI broth microdilution method; assay type: functional
Staphylococcus aureus [23] = test: Inhibition of cell wall synthesis in methicillin-sensitive wild type Staphylococcus aureus over 1 hr by [14C]N-acetyl glucosamine incorporation assay; assay type: functional, organism-based
Streptococcus pneumoniae [24] = test: Inhibition of fatty acid synthesis in Streptococcus pneumoniae D39 over 1 hr by [14C]acetic acid incorporation assay; assay type: functional; details: D39, 1 h
Staphylococcus aureus [25] = test: Inhibition of protein synthesis in methicillin-sensitive wild type Staphylococcus aureus over 1 hr by [14C]valine incorporation assay; assay type: functional, organism-based
Staphylococcus aureus [26] = test: Inhibition of RNA synthesis in methicillin-sensitive wild type Staphylococcus aureus over 1 hr by [3H]uridine incorporation assay; assay type: functional, organism-based
Streptococcus pneumoniae [27] = test: Inhibition of cell wall synthesis in Streptococcus pneumoniae D39 over 1 hr by [14C]N-acetyl glucosamine incorporation assay; assay type: functional; details: D39, 1 h
[28] = Clearance in rat plasma at 10 mg/kg, iv administered 15 mins of infusion measured for 0 to 24 hrs by LC-MS/MS analysis; assay type: ADME, organism-based; set-up: dose 10 mg/kg, route intravenous
Streptococcus pneumoniae [29] = test: Inhibition of RNA synthesis in Streptococcus pneumoniae D39 over 1 hr by [3H]uridine incorporation assay; assay type: functional
Staphylococcus aureus [30] = test: Inhibition of fatty acid synthesis in methicillin-sensitive wild type Staphylococcus aureus over 1 hr by [14C]acetic acid incorporation assay; assay type: functional, organism-based
[31] = Volume of distribution at steady state in rat plasma at 10 mg/kg, iv administered 15 mins of infusion measured for 0 to 24 hrs by LC-MS/MS analysis; assay type: ADME, organism-based; set-up: dose 10 mg/kg, route intravenous; details: read-out: Vdss
Staphylococcus aureus [32] = test: Inhibition of protein synthesis in methicillin-sensitive wild type Staphylococcus aureus over 1 hr by [14C]leucine incorporation assay; assay type: functional, organism-based
Streptococcus pneumoniae [33] = test: Inhibition of DNA synthesis in Streptococcus pneumoniae D39 over 1 hr by [3H]thymidine incorporation assay; assay type: functional
Staphylococcus aureus [34] = test: Inhibition of DNA synthesis in methicillin-sensitive wild type Staphylococcus aureus over 1 hr by [3H]thymidine incorporation assay; assay type: functional, organism-based
Streptococcus pneumoniae [35] = test: Inhibition of protein synthesis in Streptococcus pneumoniae D39 over 1 hr by [14C]valine incorporation assay; assay type: functional; details: D39, 1 h
Streptococcus pneumoniae [36] = test: Inhibition of protein synthesis in Streptococcus pneumoniae D39 over 1 hr by [14C]leucine incorporation assay; assay type: functional; details: D39, 1 h

DNA gyrase subunit B, sequence (P0A0K8 whole entry): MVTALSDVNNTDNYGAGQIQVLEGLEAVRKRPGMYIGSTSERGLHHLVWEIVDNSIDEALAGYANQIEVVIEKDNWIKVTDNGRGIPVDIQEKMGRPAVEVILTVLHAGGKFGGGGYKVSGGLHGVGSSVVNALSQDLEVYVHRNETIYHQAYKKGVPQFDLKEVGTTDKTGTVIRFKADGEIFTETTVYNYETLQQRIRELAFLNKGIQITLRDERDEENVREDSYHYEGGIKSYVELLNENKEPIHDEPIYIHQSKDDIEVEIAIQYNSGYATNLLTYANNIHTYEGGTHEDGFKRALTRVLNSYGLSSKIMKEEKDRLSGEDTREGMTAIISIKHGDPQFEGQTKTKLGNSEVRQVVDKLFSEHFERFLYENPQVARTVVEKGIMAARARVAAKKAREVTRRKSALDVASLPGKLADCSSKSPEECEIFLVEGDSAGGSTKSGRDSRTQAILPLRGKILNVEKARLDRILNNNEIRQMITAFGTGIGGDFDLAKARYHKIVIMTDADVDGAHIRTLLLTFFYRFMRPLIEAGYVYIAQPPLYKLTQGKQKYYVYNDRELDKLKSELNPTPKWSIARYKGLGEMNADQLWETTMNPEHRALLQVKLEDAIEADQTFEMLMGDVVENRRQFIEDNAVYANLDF

SMILES | MIC [1] | MIC [2] | MIC [4] | MIC [5] | MIC [6] | MIC [7] | MIC [8] | logD at 1 h [10] | MIC (Staphylococcus aureus [11]) | MIC [13] | MIC (Escherichia coli [14]) | IC50 [15] | IC50 [16] | fraction unbound at 16 h, 10 µM [17] | MIC (Escherichia coli [18]) | IC50 (DNA gyrase subunit B) | MIC (Moraxella catarrhalis) | IC50 [19] | solubility [20] | MIC [21] | also measured
CN(C)[C@@H]1C(O)=C(C(N)=O)C(=O)[C@@]2(O)C(O)=C3C(=O)c4c(O)cccc4[C@@](C)(O)[C@H]3C[C@@H]12 [TETRACYCLINE] | 0.25 µg/mL (≈ 0.563 µM) | 0.25 µg/mL (≈ 0.563 µM) | 0.25 µg/mL (≈ 0.563 µM) | 0.25 µg/mL (≈ 0.563 µM) | 0.25 µg/mL (≈ 0.563 µM) | 0.13 µg/mL (≈ 0.293 µM) | 0.25 µg/mL (≈ 0.563 µM) |  |  |  |  |  |  |  |  |  |  |  |  |  | MIC (Streptococcus pneumoniae [3]): 0.25 µg/mL (≈ 0.563 µM); MIC [9]: 0.13 µg/mL (≈ 0.293 µM)
CCNC(=O)Nc1cc(-c2nc(C(F)(F)F)cs2)c(-c2cncc(-c3nnn[nH]3)c2)cn1 |  |  |  |  |  |  |  | -0.38 | > 64 µg/mL | > 64 µg/mL | > 64 µg/mL | 260 nM | < 10 nM | 0.14 | 23 µg/mL (≈ 49.8 µM) | < 10 nM | > 64 µg/mL | < 10 nM | 240 µM (≈ 111 µg/mL) | 1.4 µg/mL (≈ 3.03 µM) | pKa [12]: 3.7
CCNC(=O)Nc1cc(-c2nc(C(F)(F)F)cs2)c(-c2cncc(C(=O)O)c2)cn1 |  |  |  |  |  |  |  | -0.62 | > 64 µg/mL | > 64 µg/mL | > 64 µg/mL | 510 nM | < 10 nM | 0.082 | 16 µg/mL (≈ 36.6 µM) | < 10 nM | 64 µg/mL (≈ 146 µM) | < 10 nM | 800 µM (≈ 350 µg/mL) | 2 µg/mL (≈ 4.57 µM) | pKa [12]: 3.7
C[C@H]1COc2c(N3CCN(C)CC3)c(F)cc3c(=O)c(C(=O)O)cn1c23.C[C@H]1COc2c(N3CCN(C)CC3)c(F)cc3c(=O)c(C(=O)O)cn1c23.O [LEVOFLOXACIN] | 16 µg/mL | 1 µg/mL | 0.5 µg/mL | 0.5 µg/mL | 0.5 µg/mL | 16 µg/mL | 1 µg/mL |  | 0.13 µg/mL |  |  |  |  |  |  |  |  |  |  |  | MIC (Staphylococcus aureus [22]): 4 µg/mL; MIC [9]: 32 µg/mL
CCNC(=O)Nc1cc(-c2nc(C(F)(F)F)cs2)c(-c2cncc(C(N)=O)c2)cn1 |  |  |  |  |  |  |  | 2 | 2.7 µg/mL (≈ 6.19 µM) | 5.5 µg/mL (≈ 12.6 µM) | > 64 µg/mL | 960 nM | 12 nM | 0.36 | 1.6 µg/mL (≈ 3.67 µM) | < 10 nM | 0.7 µg/mL (≈ 1.6 µM) | 17 nM | 26 µM (≈ 11.3 µg/mL) | 0.09 µg/mL (≈ 0.206 µM) | IC50 (Staphylococcus aureus [23]): > 200000 nM; IC50 (Streptococcus pneumoniae [24]): > 20000 nM; IC50 (Staphylococcus aureus [25]): 31000 nM; IC50 (Staphylococcus aureus [26]): 6900 nM; IC50 (Streptococcus pneumoniae [27]): > 20000 nM; clearance [28]: 120 mL/min/kg; IC50 (Streptococcus pneumoniae [29]): 830 nM; IC50 (Staphylococcus aureus [30]): > 200000 nM; MIC (Staphylococcus aureus [22]): 1.4 µg/mL (≈ 3.21 µM); Vd [31]: 1.5 L/kg; IC50 (Staphylococcus aureus [32]): 8800 nM; IC50 (Streptococcus pneumoniae [33]): 460 nM; IC50 (Staphylococcus aureus [34]): 1600 nM; IC50 (Streptococcus pneumoniae [35]): 1200 nM; IC50 (Streptococcus pneumoniae [36]): 860 nM
CCNC(=O)Nc1cc(-c2nc(C(F)(F)F)cs2)c(-c2cncc(-c3noc(=O)[nH]3)c2)cn1 |  |  |  |  |  |  |  | 0.28 | 48 µg/mL (≈ 101 µM) | > 64 µg/mL | > 64 µg/mL | 1500 nM | 11 nM | 0.011 | 12 µg/mL (≈ 25.1 µM) | 14 nM | 24 µg/mL (≈ 50.3 µM) | < 10 nM | 830 µM (≈ 396 µg/mL) | 0.74 µg/mL (≈ 1.55 µM) | clearance [28]: 360 mL/min/kg; MIC (Staphylococcus aureus [22]): 48 µg/mL (≈ 101 µM); pKa [12]: 5.4; Vd [31]: 3.5 L/kg
O=C(O)c1cn(C2CC2)c2cc(N3CCNCC3)c(F)cc2c1=O [CIPROFLOXACIN] |  |  |  |  |  |  |  |  |  |  |  |  |  |  |  |  |  |  |  |  | IC50 (Staphylococcus aureus [23]): > 195000 nM; IC50 (Streptococcus pneumoniae [24]): > 200000 nM; IC50 (Staphylococcus aureus [25]): > 195000 nM; IC50 (Staphylococcus aureus [26]): > 195000 nM; IC50 (Streptococcus pneumoniae [27]): > 200000 nM; IC50 (Streptococcus pneumoniae [29]): > 200000 nM; IC50 (Staphylococcus aureus [30]): > 195000 nM; IC50 (Staphylococcus aureus [32]): > 174000 nM; IC50 (Streptococcus pneumoniae [33]): 28000 nM; IC50 (Staphylococcus aureus [34]): 3900 nM; IC50 (Streptococcus pneumoniae [35]): > 200000 nM; IC50 (Streptococcus pneumoniae [36]): 110000 nM
CO[C@@H]1[C@@H](OC(N)=O)[C@@H](O)[C@H](Oc2ccc3c(O)c(NC(=O)c4ccc(O)c(CC=C(C)C)c4)c(=O)oc3c2C)OC1(C)C [NOVOBIOCIN] | 0.25 µg/mL (≈ 0.408 µM) | 1 µg/mL (≈ 1.63 µM) | 2 µg/mL (≈ 3.26 µM) | 4 µg/mL (≈ 6.53 µM) | 4 µg/mL (≈ 6.53 µM) | 0.25 µg/mL (≈ 0.408 µM) | 0.25 µg/mL (≈ 0.408 µM) |  |  |  |  |  |  |  |  |  |  |  |  |  | MIC (Streptococcus pneumoniae [3]): 0.5 µg/mL (≈ 0.816 µM); MIC [9]: 0.25 µg/mL (≈ 0.408 µM)
